Assay type in all cases: biochemical
In one experiment the target is T1, recombinant Aurora A (Homo sapiens, UniProt O14965).
T1 construct: purchased Upstate, Lake Placid, N.Y
T1 sequence (O14965 1-403): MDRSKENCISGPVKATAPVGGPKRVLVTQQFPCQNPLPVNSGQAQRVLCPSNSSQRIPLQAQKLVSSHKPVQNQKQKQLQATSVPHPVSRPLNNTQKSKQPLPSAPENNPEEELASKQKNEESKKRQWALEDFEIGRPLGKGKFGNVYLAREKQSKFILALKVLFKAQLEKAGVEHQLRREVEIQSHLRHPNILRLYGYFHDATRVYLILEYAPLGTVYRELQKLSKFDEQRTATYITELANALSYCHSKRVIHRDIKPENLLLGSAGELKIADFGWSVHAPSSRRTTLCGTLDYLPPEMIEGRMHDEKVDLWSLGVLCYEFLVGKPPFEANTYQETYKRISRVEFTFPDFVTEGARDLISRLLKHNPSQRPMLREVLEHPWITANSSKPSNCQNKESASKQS
As to the kind of experiment: Aurora A (Aurora 2) inhibition assay, Z'-Lyte kinase assay. The note with it: group with IC50 greater than 100 nM; ATP 10 μM, 1 h. The method, boiled down: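 Z'-Lyte FRET assay: Aurora A (200-500 ng/mL final), Ser/Thr 1 peptide (2 μM) and ATP (10 μM) in 50 mM HEPES pH 7.5, 10 mM MgCl2, 5 mM EGTA, 0.05% Brij-35, 2 mM DTT, 1 h at room temperature. Coumarin/fluorescein emission ratio converted to percent phosphorylation; dose-response curves plotted.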

Experiment [1] addresses T2, N-terminal His6-tagged recombinant human KDR, residues 790-end (Homo sapiens, UniProt P35968).
T2 construct: recombinant human KDR, residues 790-end; His6 (N); purchased Upstate USA Inc, 706 Forest Street, Charlottesville, Va
As to the kind of experiment: KDR kinase inhibition assay (33P-ATP filter assay). The essentials: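 His6-tagged human KDR (residues 790-end, 5-10 mU) with 0.33 mg/mL myelin basic protein in 8 mM MOPS pH 7.0, 0.2 mM EDTA, 10 mM magnesium acetate and [γ-33P]ATP; 40 min at room temperature. Stopped with phosphoric acid, filter-bound 33P counted; inhibition relative to no-inhibitor controls.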

In experiment [2] the target is T3, N-terminal GST-tagged recombinant human Flt3, residues 564-end (Homo sapiens, UniProt P36888).
T3 construct: recombinant human Flt3, residues 564-end; GST (N); purchased Upstate USA Inc, 706 Forest Street, Charlottesville, Va
T3 sequence (P36888 564-993 limits assumed): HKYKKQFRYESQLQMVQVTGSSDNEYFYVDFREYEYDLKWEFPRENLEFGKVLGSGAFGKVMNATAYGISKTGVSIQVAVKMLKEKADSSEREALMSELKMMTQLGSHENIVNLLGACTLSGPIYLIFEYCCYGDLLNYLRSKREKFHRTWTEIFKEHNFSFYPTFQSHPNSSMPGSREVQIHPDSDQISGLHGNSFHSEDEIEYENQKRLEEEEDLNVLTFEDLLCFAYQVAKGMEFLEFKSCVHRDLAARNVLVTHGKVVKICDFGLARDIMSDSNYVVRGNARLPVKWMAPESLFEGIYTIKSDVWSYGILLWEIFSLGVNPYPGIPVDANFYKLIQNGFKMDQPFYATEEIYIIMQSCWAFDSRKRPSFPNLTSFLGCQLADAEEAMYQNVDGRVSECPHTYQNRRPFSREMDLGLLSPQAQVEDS
As to the kind of experiment: Flt3 kinase inhibition assay (33P-ATP filter assay). The method, boiled down:
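Serial compound dilutions incubated 40 min at room temperature with 5-10 mU Flt3 kinase, 50 μM peptide substrate and [γ-33P]ATP/10 mM magnesium acetate, pH 7.0. Phosphoric acid stop, filter capture and scintillation counting; activity compared with uninhibited reactions.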

The mark [3] stands for this setting: group with IC50 greater than 100 nM.

T2 sequence (P35968 790-1356 limits assumed): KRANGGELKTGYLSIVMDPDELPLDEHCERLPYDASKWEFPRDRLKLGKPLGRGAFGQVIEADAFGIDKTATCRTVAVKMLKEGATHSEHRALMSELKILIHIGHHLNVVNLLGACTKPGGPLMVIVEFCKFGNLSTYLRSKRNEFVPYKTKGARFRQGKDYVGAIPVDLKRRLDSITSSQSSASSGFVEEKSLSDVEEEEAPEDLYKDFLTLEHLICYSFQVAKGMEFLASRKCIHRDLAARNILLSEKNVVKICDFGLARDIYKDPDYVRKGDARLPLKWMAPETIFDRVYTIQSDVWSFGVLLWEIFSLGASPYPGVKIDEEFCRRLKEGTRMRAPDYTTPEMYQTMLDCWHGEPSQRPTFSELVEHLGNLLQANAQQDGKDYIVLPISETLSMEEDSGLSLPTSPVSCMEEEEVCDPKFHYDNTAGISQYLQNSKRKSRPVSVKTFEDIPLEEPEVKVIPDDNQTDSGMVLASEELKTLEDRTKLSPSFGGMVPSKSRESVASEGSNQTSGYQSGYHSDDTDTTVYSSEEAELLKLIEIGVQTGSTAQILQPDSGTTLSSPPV

A word on the IC50: it is the concentration that gives 50% inhibition. For `Cc1cc(Nc2cc(NC3CCOCC3)nc(-c3ccc(C(C)(C)C)cc3)n2)n[nH]1` [Compound 70, 2-(4-tert-butylphenyl)-N^4-(5-methyl-1H-pyrazol-3-yl)-N^6-(tetrahydro-2H-pyran-4-yl)pyrimidine-4,6-diamine], the IC50 is not above 1000 nM on recombinant Aurora A, not above 1000 nM in experiment [1] (setting [3]) and not above 100 nM in experiment [2] (40 minutes at room temperature).
`Cc1cc(Nc2cc(N3CCN(C)CC3)nc(-c3ccccc3C(F)(F)F)n2)n[nH]1` [Compound 102, N-(5-methyl-1H-pyrazol-3-yl)-6-(4-methylpiperazin-1-yl)-2-(2-(trifluoromethyl)phenyl)pyrimidin-4-amine]: the figures for the IC50 (on recombinant Aurora A; in experiment [1] (40 minutes at room temperature); in experiment [2] (40 minutes at room temperature)) were not above 1000 nM, not above 100 nM and not above 100 nM, respectively.
Turning to `Cc1cc(Nc2cc(NC3CCOCC3)nc(-c3ccccc3C(F)(F)F)n2)n[nH]1` [Compound 81, N^4-(5-methyl-1H-pyrazol-3-yl)-N^6-(tetrahydro-2H-pyran-4-yl)-2-(2-(trifluoromethyl)phenyl)pyrimidine-4,6-diamine], the figures for the IC50 (on recombinant Aurora A; in experiment [1] (setting [3]); in experiment [2] (40 minutes at room temperature)) were not above 1000 nM, not above 1000 nM and not above 100 nM, respectively.
For the molecule `Cc1cc(Nc2cc(NC3CCOCC3)nc(-c3cccc4ccccc34)n2)n[nH]1` [Example 127, N^4-(5-methyl-1H-pyrazol-3-yl)-2-(naphthalen-1-yl)-N^6-(tetrahydro-2H-pyran-4-yl)pyrimidine-4,6-diamine], the IC50 is not above 1000 nM at recombinant Aurora A, not above 1000 nM in experiment [1] (setting [3]) and not above 100 nM in experiment [2] (40 minutes at room temperature).
Take `Cc1cc(Nc2cc(NC3CCOCC3)nc(-c3ccc(C(F)(F)F)cc3)n2)n[nH]1` [Compound 79, N^4-(5-methyl-1H-pyrazol-3-yl)-N^6-(tetrahydro-2H-pyran-4-yl)-2-(4-(trifluoromethyl)phenyl)pyrimidine-4,6-diamine]: the values for the IC50 (at recombinant Aurora A; in experiment [2] (40 minutes at room temperature)) were not above 1000 nM and not above 100 nM, respectively.
For the molecule `COCCN(C)c1cc(Nc2cc(C)[nH]n2)nc(-c2ccccc2Cl)n1` [Compound 63], the IC50 at recombinant Aurora A was not above 1000 nM; in experiment [1] (setting [3]), not above 1000 nM; in experiment [2] (40 minutes at room temperature), not above 100 nM.
As to `COCCN(C)c1cc(Nc2cc(C)[nH]n2)nc(-c2cccc(C)c2)n1` [Compound 65, N^4-(2-methoxyethyl)-N^4-methyl-N^6-(5-methyl-1H-pyrazol-3-yl)-2-m-tolylpyrimidine-4,6-diamine], the figures for the IC50 (at recombinant Aurora A; in experiment [1] (setting [3]); in experiment [2] (40 minutes at room temperature)) were not above 1000 nM, not above 1000 nM and not above 100 nM, respectively.
Take `Cc1cc(Nc2cc(N(C)CCN(C)C)nc(-c3cccc(N(C)C)c3)n2)n[nH]1` [Compound 107]: the IC50 was not above 1000 nM at recombinant Aurora A, not above 100 nM in experiment [1] (40 minutes at room temperature) and not above 100 nM in experiment [2] (40 minutes at room temperature).
In the case of `Cc1cc(Nc2cc(N(C)CCN(C)C)nc(-c3ccc4ccccc4c3)n2)n[nH]1` [Example 142, N^4-(2-(dimethylamino)ethyl)-N^4-methyl-N^6-(5-methyl-1H-pyrazol-3-yl)-2-(naphthalen-2-yl)pyrimidine-4,6-diamine], the IC50 was not above 1000 nM at recombinant Aurora A, not above 1000 nM in experiment [1] (setting [3]) and not above 100 nM in experiment [2] (40 minutes at room temperature).
In the case of `Cc1cc(Nc2cc(N3CCN(C)CC3)nc(-c3ccc(-c4ccccc4)cc3)n2)n[nH]1` [Example 157, 2-(biphenyl-4-yl)-N-(5-methyl-1H-pyrazol-3-yl)-6-(4-methylpiperazin-1-yl)pyrimidin-4-amine], the IC50 was not above 1000 nM on recombinant Aurora A, not above 1000 nM in experiment [1] (setting [3]) and not above 100 nM in experiment [2] (40 minutes at room temperature).
Regarding `COCCN(C)c1cc(Nc2cc(C)[nH]n2)nc(-c2cccc(OC)c2)n1` [Compound 68, N^4-(2-methoxyethyl)-2-(3-methoxyphenyl)-N^4-methyl-N^6-(5-methyl-1H-pyrazol-3-yl)pyrimidine-4,6-diamine], the results for the IC50 (on recombinant Aurora A; in experiment [1] (setting [3]); in experiment [2] (40 minutes at room temperature)) were not above 1000 nM, not above 1000 nM and not above 100 nM, respectively.
Consider `Cc1cc(Nc2cc(NC3CCOCC3)nc(-c3cccc(C(F)(F)F)c3)n2)n[nH]1` [Compound 80, N^4-(5-methyl-1H-pyrazol-3-yl)-N^6-(tetrahydro-2H-pyran-4-yl)-2-(3-(trifluoromethyl)phenyl)pyrimidine-4,6-diamine], for which the IC50 is not above 1000 nM on recombinant Aurora A, not above 1000 nM in experiment [1] (setting [3]) and not above 100 nM in experiment [2] (40 minutes at room temperature).
For the molecule `COCCN(C)c1cc(Nc2cc(C)[nH]n2)nc(-c2cccc3ccccc23)n1` [Example 148, N^4-(2-methoxyethyl)-N^4-methyl-N^6-(5-methyl-1H-pyrazol-3-yl)-2-(naphthalen-1-yl)pyrimidine-4,6-diamine], the IC50 at recombinant Aurora A was not above 1000 nM; in experiment [1] (setting [3]) it was not above 1000 nM; in experiment [2] (40 minutes at room temperature), not above 100 nM.
On to `Cc1cc(Nc2cc(N(C)CCN(C)C)nc(-c3ccc(C(C)(C)C)cc3)n2)n[nH]1` [Compound 103, 2-(4-tert-butylphenyl)-N^4-(2-(dimethylamino)ethyl)-N^4-methyl-N^6-(5-methyl-1H-pyrazol-3-yl)pyrimidine-4,6-diamine], for which the IC50 at recombinant Aurora A was not above 1000 nM; in experiment [1] (setting [3]), not above 1000 nM; in experiment [2] (40 minutes at room temperature), not above 100 nM.
For the molecule `Cc1cc(Nc2cc(N3CCN(C)CC3)nc(-c3ccc(C(F)(F)F)cc3)n2)n[nH]1` [Compound 100], the IC50 on recombinant Aurora A is not above 1000 nM; in experiment [2] (40 minutes at room temperature), not above 100 nM.
`COCCN(C)c1cc(Nc2cc(C)[nH]n2)nc(-c2ccc(N(C)C)cc2)n1` [Compound 118, 2-(4-(dimethylamino)phenyl)-N^4-(2-methoxyethyl)-N^4-methyl-N^6-(5-methyl-1H-pyrazol-3-yl)pyrimidine-4,6-diamine]: the IC50 is not above 1000 nM at recombinant Aurora A, not above 1000 nM in experiment [1] (setting [3]) and not above 100 nM in experiment [2] (40 minutes at room temperature).
`COCCN(C)c1cc(Nc2cc(C)[nH]n2)nc(-c2cccc(C(F)(F)F)c2)n1` [Compound 125, N^4-(2-methoxyethyl)-N^4-methyl-N^6-(5-methyl-1H-pyrazol-3-yl)-2-(3-(trifluoromethyl)phenyl)pyrimidine-4,6-diamine]: the IC50 (on recombinant Aurora A; in experiment [1] (setting [3]); in experiment [2] (setting [3])) was not above 1000 nM each time.
As for `Cc1cc(Nc2cc(N(C)CCN(C)C)nc(-c3cccc(C(F)(F)F)c3)n2)n[nH]1` [Compound 113, N^4-(2-(dimethylamino)ethyl)-N^4-methyl-N^6-(5-methyl-1H-pyrazol-3-yl)-2-(3-(trifluoromethyl)phenyl)pyrimidine-4,6-diamine], the IC50 is not above 1000 nM at recombinant Aurora A, not above 1000 nM in experiment [1] (setting [3]) and not above 100 nM in experiment [2] (40 minutes at room temperature).
As for `Cc1cc(Nc2cc(N3CCN(C)CC3)nc(-c3cccc4c3OCCO4)n2)n[nH]1` [Example 136, 2-(2,3-dihydrobenzo[b][1,4]dioxin-5-yl)-N-(5-methyl-1H-pyrazol-3-yl)-6-(4-methylpiperazin-1-yl)pyrimidin-4-amine], the IC50 on recombinant Aurora A is not above 1000 nM; in experiment [1] (setting [3]), not above 1000 nM; in experiment [2] (40 minutes at room temperature) it was not above 100 nM.
Regarding `Cc1cc(Nc2cc(N3CCN(C)CC3)nc(-c3cc(F)cc(Cl)c3)n2)n[nH]1` [Compound 97], the IC50 was not above 1000 nM at recombinant Aurora A, not above 1000 nM in experiment [1] (setting [3]) and not above 100 nM in experiment [2] (40 minutes at room temperature).
Take `Cc1cc(Nc2cc(N(C)CCN(C)C)nc(-c3ccc4c(c3)OCO4)n2)n[nH]1` [Example 146, 2-(benzo[d][1,3]dioxol-5-yl)-N^4-(2-(dimethylamino)ethyl)-N^4-methyl-N^6-(5-methyl-1H-pyrazol-3-yl)pyrimidine-4,6-diamine]: the figures for the IC50 (at recombinant Aurora A; in experiment [1] (setting [3]); in experiment [2] (40 minutes at room temperature)) were not above 1000 nM, not above 1000 nM and not above 100 nM, respectively.

(Values after patent US20090029992A1, “SUBSTITUTED PYRAZOLE COMPOUNDS” (priority 2007, published 2009).)
